The nature of series [1]: Critical micelle concentration by tensiometer measurements in water. Particulars: for CMC: in water, triplicate single values. The series is classed as physicochemical.
A further series concerns herpes-simplex virus 2. Particulars: ref xxi; cited from earlier work.
A further series deals with bacteriophage φ6. Conditions: ref xxi; cited from earlier work.
Series [2] relates to simian immunodeficiency virus (SIV). Conditions: ref xxii; cited from earlier work.

Several values for one entry are separate records, joined by “and”; a condition that tells them apart may be missing. Equal entries are not always repeated.

Regarding `CCCCCCCCCCCCCCCC(=O)OC[C@H]1O[C@H](O[C@@H]2O[C@H](CO)[C@@H](O)[C@H](O)[C@H]2O)[C@@H](O)[C@@H](O)[C@@H]1O` [Compound 6, β-D-Glucopyranosyl-(1→1)-6-O-palmitate-α-D-mannopyranoside], the CMC in series [1] is 10.5 µM and 12 µM. As for `CCCCCCCCCCCCCCCC(=O)OC[C@H]1O[C@H](OC)[C@@H](O)[C@@H](O)[C@@H]1O` [Compound 7, Methyl-6-O-palmitate-α-D-mannopyranoside], the CMC in series [1] was 13.5 µM and 13.7 µM. Consider `CCCCCCCCCCCCCCCC(=O)OC[C@H]1O[C@H](OC)[C@@H](O)[C@@H](O)[C@@H]1OC(=O)CCCCCCCCCCCCCCC` [Compound 8, Methyl-4,6-di-O-palmitate-α-D-mannopyranoside], for which the “concentration above which precipitates rather than micelles form in water” value in series [1] (interpretation of surface tension data) is greater than 0.5 µM. In turn, `CCCCCCCCCCCCCCCC(=O)OC[C@H]1O[C@H](O[C@@H]2O[C@H](CO)[C@H](O)[C@H](O)[C@H]2O)[C@@H](O)[C@@H](O)[C@@H]1O` [Compound 3, β-D-Galactopyranosyl-(1→1)-6-O-palmitate-α-D-mannopyranoside] registered a CMC in series [1] of 10.5 µM. In the case of 1-O-lauryl-glycerol [GML], in the series on herpes-simplex virus 2, the “activity against herpes-simplex virus 2” value is reported as “low micromolar activity”. Further, the “activity against bacteriophage φ6” value in the series with bacteriophage φ6 is “low micromolar activity”. Further, the “prevention of SIV in rhesus macaque model” value in series [2] was “prevent simian immunodeficiency virus (SIV)”.

In series [1], `CCCCCCCCCCCCCCCC(=O)O[C@@H]1[C@H](O)[C@@H](O[C@@H]2O[C@H](CO)[C@H](O)[C@H](O)[C@H]2O)O[C@H](CO)[C@H]1O` [Compound 4, β-D-Galactopyranosyl-(1→1)-3-O-palmitate-α-D-mannopyranoside] showed a CMC of 12.5 µM.

The values above are taken from article PMC3380439 (Bioorganic & medicinal chemistry, 2011).
